Assay results: article PMC10112232, “Comparison of Toxicities among Different Bumped Kinase Inhibitor Analogs for Treatment of Cryptosporidiosis” (Antimicrobial Agents and Chemotherapy, 2023)
Where two headings read alike, the source gives them in different places.

Key:
[1] = cited from earlier work; for HR / MAP / dP/dt@50: rat
[2] = target: T1, C. parvum calcium dependent protein kinase 1 (CpCDPK1) (Cryptosporidium parvum, UniProt A3FQ16); assay: In vitro inhibition of CpCDPK1; assay type: biochemical
T1 sequence (A3FQ16 1-538): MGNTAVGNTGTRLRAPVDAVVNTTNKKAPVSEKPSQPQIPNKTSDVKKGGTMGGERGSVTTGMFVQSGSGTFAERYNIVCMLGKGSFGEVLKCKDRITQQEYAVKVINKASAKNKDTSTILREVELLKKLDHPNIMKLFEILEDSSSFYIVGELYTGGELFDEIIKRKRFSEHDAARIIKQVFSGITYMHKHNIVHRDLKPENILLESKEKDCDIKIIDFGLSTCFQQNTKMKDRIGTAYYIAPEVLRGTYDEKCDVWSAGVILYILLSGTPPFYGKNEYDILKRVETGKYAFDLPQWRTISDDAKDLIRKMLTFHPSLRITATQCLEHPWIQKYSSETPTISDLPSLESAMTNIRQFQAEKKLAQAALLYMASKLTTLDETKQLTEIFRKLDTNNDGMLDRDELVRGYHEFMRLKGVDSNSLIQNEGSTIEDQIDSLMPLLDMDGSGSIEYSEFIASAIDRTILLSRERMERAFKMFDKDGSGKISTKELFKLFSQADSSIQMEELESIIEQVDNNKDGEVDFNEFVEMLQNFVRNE
Source text: (§1) Methods for synthesis of BKIs ([17], [23]), efficacy against Nluc expressing C. parvum in infected adult IFN-γ KO mice ([6], [9]), in vivo mouse GI tract tissue exposure by LC/MS-MS analysis ([18], [28]), PK analysis of mouse plasma and brain tissue BKI concentrations by LC/MS-MS analysis ([29]), in vivo rat and dog cardiotoxicity screen ([30]), efficacy against IOWA-II strain C. parvum in infected neonatal calves ([13]), efficacy against C. hominis in infected piglets ([12]), in vitro inhibition of C. parvum CDPK1 (CpCDPK1) and human tyrosine kinase SRC (HsSRC) activity ([31]), in vitro inhibition of hERG ([32]), Nluc expressing C. parvum in vitro growth inhibition in infected HCT-8 cells ([6]), in vitro cytotoxicity in CRL-8155 and HepG2 cells ([29]), and mouse locomotor activity box ([33], [34]) have all been previously described. Analytes were measured by LC/MS-MS on an Acquity ultra performance liquid chromatography (UPLC) system in tandem with a Xevo TQ-S mass spectrometer (Waters, Milford, MA, USA).

[3] = system: Nluc expressing C. parvum; assay: Efficacy in IFN-γ KO mice infected with Nluc expressing C. parvum; assay type: in vivo; settings: for difference in parasite excretion vs untreated control: n = 3
Method: BKI-1841 was also tested at doses of 60, 30, 15, and 5 mg/kg once daily (QD) for 5 days, resulting in a minimum efficacious dose of 30 mg/kg that cleared parasite excretion to background levels by day 13 postinfection (Fig. 4).
FIG 4 Efficacy of BKI-1841 in interferon-γ knockout mice infected with nanoluciferase expressing C. parvum. Treatments were separated into two separate experiments for BKI-1841. Untreated control groups for each experiment are grouped with their associated treatment in the figure keys. Dotted line denotes the limit of detection. Treatments were dosed on days 6 through 10 postinfection. […] QD = once daily.
as §1

Compound	effects on MAP, HR, left ventricular contractility vs vehicle ([1]; anesthetized rats, 30-minute IV infusions of 3, 10, 30 mg/kg, significant >15%)	HR ([1]; IV 3 mg/kg) [%]	MAP ([1]; IV 3 mg/kg) [%]	dP/dt@50 ([1]; IV 3 mg/kg) [%]	HR ([1]; IV 10 mg/kg) [%]	MAP ([1]; IV 10 mg/kg) [%]	dP/dt@50 ([1]; IV 10 mg/kg) [%]	HR ([1]; IV 30 mg/kg) [%]	MAP ([1]; IV 30 mg/kg) [%]	dP/dt@50 ([1]; IV 30 mg/kg) [%]	signs of cardiotoxicity ([1]; rats)	IC50 [2] [nM]	difference in parasite excretion vs untreated control ([3]; 5 mg/kg QD days 6-10 postinfection)	difference in parasite excretion vs untreated control ([3]; 15 mg/kg QD days 6-10 postinfection)	difference in parasite excretion vs untreated control ([3]; 30 mg/kg QD days 6-10 postinfection)	difference in parasite excretion vs untreated control ([3]; 60 mg/kg QD days 6-10 postinfection)	minimum efficacious dose ([3]; IFN-γ KO mice, once daily (QD) for 5 days, cleared parasite excretion to background by day 13 postinfection) [mg/kg]
CCOc1ccc2cc(-c3nn(C(C)(C)CCO)c(N)c3C(N)=O)ccc2c1 [BKI-1770]	No significant effects	8	-7	0	8	5	9	3	-7	8	no signs of cardiotoxicity	–	–	–	–	–	–
CCOc1ccc2cc(-c3nn(C4CCOCC4)c(N)c3C(N)=O)ccc2n1 [BKI-1841]	–	–	–	–	–	–	–	–	–	–	–	3	no significant difference	no significant difference	Significant differences	Significant differences	30
